What is called IC50 is the concentration that gives 50% inhibition. For orientation: Ki means the dissociation constant of the complex between target and ligand, obtained from inhibition or displacement. A higher Ki goes with a looser hold on the target.

Structures are written as SMILES. Like-named read-outs stand apart in the source and are kept apart here.

The record followed here is patent US8906911B2, “Chemokine receptor antagonists” (AbbVie Inc., priority 2012, dated 2014).

The target in one test is rat CCR2 (Rattus norvegicus (Rat), UniProt O55193). Description: Inhibition of native agonist (rat MCP-1)-induced intracellular calcium release, calcium flux assay in CHO cells expressing rat CCR2 and Gα16. Type of test: cell-based. As to conditions: read-out: rCCR2 Kb. From the text:
(§1) CHO cells expressing human CCR2B were generated as follows. cDNA for human CCR2B (cloned from human blood) was cloned into plasmid pcDNA3.1 (from Invitrogen). The resulting plasmids were separately transfected into CHO cells expressing human Gα16 (from Molecular Devices). […] CHO cells expressing rat CCR2 were generated as follows. cDNA for rat CCR2 (cloned from rat macrophage) was cloned into plasmid pEF-flag (from Chinese Academy of Science). The resulting plasmids were transfected into CHO cells expressing human Gα16 (from […]).
(§2) Inhibition of Native Agonist-Induced Intracellular Calcium Release in Cells Expressing hCCR2B or rCCR2
(§3) Calcium flux assays were performed in CHO cells expressing human CCR2B and Gα16 coupling protein, or rat CCR2 and Gα16 coupling protein. All compounds were dissolved in DMSO and assays run at a final DMSO concentration of 0.25% (v/v). Human MCP-1 was purchased from PeproTech and used at a final assay concentration of 2 nM, while rat MCP-1 was purchased from R&D and used at a final assay concentration of 4 nM. Assays with cells expressing human CCR2B were performed with human MCP-1, while assays with cells expressing rat CCR2 were performed with rat MCP-1.
(§4) Briefly, cells were cultured overnight in a microtiter plate at 8000 per well. The next day, the resultant adherent cells were incubated in assay buffer (20 mM HEPES, pH 7.4, 0.1% bovine serum albumin, and 2.5 mM probenocid in Hank's Buffered Saline Solution) containing Calcium 4 dye (Molecular Probes) at 37° C. for 60 minutes. Calcium flux assays were performed on a FLIPR^Tetra instrument (Molecular Devices) by adding compound to the cells followed by addition of native agonist and measuring the change in fluorescence as a function of time. Maximal and minimal values for fluorescence were determined using native agonist (2 nM MCP-1) for human or rat CCR2, or buffer addition, respectively. Fluorescence values were used to calculate the percent inhibition at a given compound concentration and the data fit to a sigmoidal curve in a semi-log plot to determine IC50 values. The Kb value is calculated as Kb=IC50/(1+[agonist]/EC50), where [agonist] is the concentration of agonist used and EC50 is the agonist potency determined in the previous experiments. Mean Kb values and IC50 of the compounds assayed are reported in Table 2 and Table 3 respectively.
A general note: Calcium assays in cells follow changes in intracellular calcium, usually with a dye or a luminescent sensor.

Test [1] concerns the target T1, human CCR2B (Homo sapiens (Human), UniProt P41597). The test is described as follows: Inhibition of native agonist (human MCP-1)-induced intracellular calcium release, calcium flux assay in CHO cells expressing human CCR2B and Gα16. Type of test: cell-based. As to conditions: for IC50: read-out: hCCR2B IC50; for Kb: read-out: hCCR2B Kb.
Description: as §1, §2, §3, §4

Test [2] deals with T1, human CCR2B. The test is described as follows: Inhibition of [125I]-labeled MCP-1 binding to hCCR2B (radioligand binding in CHO cells). Particulars: mean Ki; [125I]-MCP-1 50 pM; CHO cells expressing human CCR2B and Gα16.
Description: as §1
Inhibition of [^125I]-Labeled MCP-1 Binding to hCCR2B
Radioligand binding assays were performed in CHO cells expressing human CCR2B and Gα16 coupling protein. All compounds were dissolved in DMSO and assays run at a final DMSO concentration of 0.5% (v/v). [^125I]-labeled human MCP-1 was purchased from PerkinElmer. Unlabelled human MCP-1 was purchased from PeproTech.
Compounds were serially diluted in DMSO before diluting into assay buffer (25 mM HEPES, pH 7.4, 5 mM MgCl2, 1 mM CaCl2, 0.5% BSA) with cryo preserved CHO cells expressing human CCR2B and the Gα16 coupling protein (30×10^3/well) and [^125I]-MCP-1 (50 pM). The reaction was incubated at room temperature for 90 minutes before transferring to GF/C filter membrane (PerkinElmer) pre-treated with 0.3% polyethyleneimine for 2 hours at 4° C. The filter membrane was washed six times with ice cold wash buffer (25 mM HEPES, pH 7.4, 5 mM MgCl2, 1 mM CaCl2, 500 mM NaCl, 0.01% (m/v) azide), dried, and sealed in a RLB sample bag (Agilent Technologies) before adding 5.0 mL Microscint 20 to each bag. Membrane was counted on Microbeta counter where background binding was determined by the presence of 100 nM MCP-1 and control total binding was determined by addition of DMSO in place of the test compound. The radioactivity values (cpm) were used to calculate the percent inhibition at a given compound concentration and the data fit to a sigmoidal curve in a semi-log plot to determine IC50 values. The corresponding Ki value is calculated as follows:
Ki=IC50/(1+[radioligand]/Kd), where [radioligand] is the concentration of the label and Kd (dissociation constant) is determined in saturation experiment with different concentrations of labeled MCP-1.

T1 sequence (P41597 other isoform, or with tags, fused parts or gaps): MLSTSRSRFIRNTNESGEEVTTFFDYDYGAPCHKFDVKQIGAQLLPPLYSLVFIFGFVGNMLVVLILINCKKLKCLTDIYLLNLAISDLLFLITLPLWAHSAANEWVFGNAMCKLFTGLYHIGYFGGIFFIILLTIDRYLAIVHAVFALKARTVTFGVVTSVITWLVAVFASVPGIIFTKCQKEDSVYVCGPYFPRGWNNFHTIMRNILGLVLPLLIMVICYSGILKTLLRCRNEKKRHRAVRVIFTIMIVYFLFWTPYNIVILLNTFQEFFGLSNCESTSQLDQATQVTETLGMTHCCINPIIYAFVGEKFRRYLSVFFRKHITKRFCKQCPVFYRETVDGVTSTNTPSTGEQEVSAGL
Chain of rat CCR2 (O55193 whole entry): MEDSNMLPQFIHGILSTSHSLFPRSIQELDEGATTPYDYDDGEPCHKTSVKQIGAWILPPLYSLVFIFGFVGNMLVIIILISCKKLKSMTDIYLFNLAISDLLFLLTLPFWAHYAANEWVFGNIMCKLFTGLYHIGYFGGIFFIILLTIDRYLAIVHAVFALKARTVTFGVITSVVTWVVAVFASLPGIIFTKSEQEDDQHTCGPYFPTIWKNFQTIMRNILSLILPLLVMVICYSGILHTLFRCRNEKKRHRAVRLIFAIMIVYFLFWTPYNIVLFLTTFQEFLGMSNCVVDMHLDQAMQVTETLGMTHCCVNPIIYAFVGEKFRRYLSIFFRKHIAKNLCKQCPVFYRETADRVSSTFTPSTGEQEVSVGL

`CO[C@@H]1COCC[C@@H]1N[C@@H]1C[C@H]2CCC[C@@]2(C(=O)N2C[C@@H]3C[C@H]2CN3c2cc(C(F)(F)F)ccc2C(F)(F)F)C1` [Example 50, 1,5-anhydro-3-{[(2R,3aR,6aR)-3a-({(1S,4S)-5-[2,5-bis(trifluoromethyl)phenyl]-2,5-diazabicyclo[2.2.1]hept-2-yl}carbonyl)octahydropentalen-2-yl]amino}-2,3-dideoxy-4-O-methyl-D-erythro-pentitol]: the Kb at rat CCR2 was found to be 6 nM. At human CCR2B [1], the IC50 was determined as 25.9 nM and the Kb worked out at 6 nM. For the same molecule, the Ki at human CCR2B [2] amounted to 78 nM.

`CO[C@@H]1COCC[C@@H]1N[C@@H]1C[C@H]2CCC[C@@]2(C(=O)N2C[C@@H]3C[C@H]2CN3c2cc(C#N)ccc2C(F)(F)F)C1` [Example 36, 1,5-anhydro-3-{[(2R,3aR,6aR)-3a-({(1S,4S)-5-[5-cyano-2-(trifluoromethyl)phenyl]-2,5-diazabicyclo[2.2.1]hept-2-yl}carbonyl)octahydropentalen-2-yl]amino}-2,3-dideoxy-4-O-methyl-D-erythro-pentitol]: the Kb on rat CCR2 is 24 nM; on human CCR2B [1], 75 nM. Besides, the IC50 on human CCR2B [1] (calcium flux, human MCP-1 2 nM) turned out to be 305 nM. Moreover, the inhibition constant (Ki) at human CCR2B [2] worked out at 1060 nM.

As to `CO[C@@H]1COCC[C@@H]1N[C@@H]1C[C@H]2CCC[C@@]2(C(=O)N2C[C@@H]3C[C@H]2CN3c2ccnc(C(F)(F)F)c2)C1` [Example 26, 1,5-anhydro-2,3-dideoxy-4-O-methyl-3-{[(2R,3aR,6aR)-3a-({(1S,4S)-5-[2-(trifluoromethyl)pyridin-4-yl]-2,5-diazabicyclo[2.2.1]hept-2-yl}carbonyl)octahydropentalen-2-yl]amino}-D-erythro-pentitol], the Kb on rat CCR2 is 22 nM; at human CCR2B [1], 147 nM. Moreover, at human CCR2B [1] (calcium flux, human MCP-1 2 nM), the IC50 is 598 nM. At human CCR2B [2], this molecule had an inhibition constant Ki of 792 nM.

With `CO[C@@H]1COCC[C@@H]1N[C@@H]1C[C@H]2CCC[C@@]2(C(=O)N2C[C@@H]3C[C@H]2CN3c2ccnc(C(F)(F)F)n2)C1` [Example 27, 1,5-anhydro-2,3-dideoxy-4-O-methyl-3-{[(2R,3aR,6aR)-3a-({(1S,4S)-5-[2-(trifluoromethyl)pyrimidin-4-yl]-2,5-diazabicyclo[2.2.1]hept-2-yl}carbonyl)octahydropentalen-2-yl]amino}-D-erythro-pentitol], the Kb is 19 nM on rat CCR2 and 96 nM on human CCR2B [1]. The IC50 at human CCR2B [1] (calcium flux, human MCP-1 2 nM) is 391 nM. At human CCR2B [2], this molecule yielded a Ki of 444 nM.

As to `CO[C@@H]1COCC[C@@H]1N[C@@H]1C[C@H]2CCC[C@@]2(C(=O)N2C[C@@H]3C[C@H]2CN3c2ccc(C)c(C(F)(F)F)c2)C1` [Example 19, 1,5-anhydro-2,3-dideoxy-4-O-methyl-3-{[(2R,3aR,6aR)-3a-({(1S,4S)-5-[4-methyl-3-(trifluoromethyl)phenyl]-2,5-diazabicyclo[2.2.1]hept-2-yl}carbonyl)octahydropentalen-2-yl]amino}-D-erythro-pentitol], the figures for the Kb on rat CCR2 and at human CCR2B [1] were 12 nM and 57 nM, respectively. Moreover, the IC50 at human CCR2B [1] (calcium flux, human MCP-1 2 nM) worked out at 233 nM. Further, the Ki at human CCR2B [2] was found to be 306 nM.

Regarding `CO[C@@H]1COCC[C@@H]1N[C@@H]1C[C@H]2CCC[C@@]2(C(=O)N2C[C@@H]3C[C@H]2CN3c2ncc(C(F)(F)F)cc2Cl)C1` [Example 32, 1,5-anhydro-3-{[(2R,3aR,6aR)-3a-({(1S,4S)-5-[3-chloro-5-(trifluoromethyl)pyridin-2-yl]-2,5-diazabicyclo[2.2.1]hept-2-yl}carbonyl)octahydropentalen-2-yl]amino}-2,3-dideoxy-4-O-methyl-D-erythro-pentitol], the Kb at rat CCR2 stood at 44 nM; on human CCR2B [1] it was 77 nM. Also, the half-maximal inhibitory concentration (IC50) at human CCR2B [1] (calcium flux, human MCP-1 2 nM) was 314 nM. The molecule further displayed an inhibition constant Ki on human CCR2B [2] of 1060 nM.

For `CO[C@@H]1COCC[C@@H]1N(C)[C@@H]1C[C@H]2CCC[C@@]2(C(=O)N2C[C@@H]3C[C@H]2CN3c2cc(C(F)(F)F)ccc2C#N)C1` [Example 53, 1,5-anhydro-3-{[(2R,3aR,6aR)-3a-({(1S,4S)-5-[2-cyano-5-(trifluoromethyl)phenyl]-2,5-diazabicyclo[2.2.1]hept-2-yl}carbonyl)octahydropentalen-2-yl](methyl)amino}-2,3-dideoxy-4-O-methyl-D-erythro-pentitol], the Kb on rat CCR2 came out at 26 nM. Besides, on human CCR2B [1], the IC50 amounted to 47.9 nM and the Kb amounted to 12 nM. The molecule further returned a Ki on human CCR2B [2] of 16 nM.

Turning to `CO[C@@H]1COCC[C@@H]1N[C@@H]1C[C@H]2CCC[C@@]2(C(=O)N2C[C@@H]3C[C@H]2CN3c2cc(C(F)(F)F)ccc2C#N)C1` [Example 28, 1,5-anhydro-3-{[(2R,3aR,6aR)-3a-({(1S,4S)-5-[2-cyano-5-(trifluoromethyl)phenyl]-2,5-diazabicyclo[2.2.1]hept-2-yl}carbonyl)octahydropentalen-2-yl]amino}-2,3-dideoxy-4-O-methyl-D-erythro-pentitol], the Kb on rat CCR2 and on human CCR2B [1] was 5 nM in each case. Moreover, at human CCR2B [1] (calcium flux, human MCP-1 2 nM), the IC50 amounted to 19.8 nM. In addition, on human CCR2B [2], the Ki was 32 nM.

In the case of `CC[C@@H]1COCC[C@H]1N[C@@H]1C[C@H]2CCC[C@@]2(C(=O)N2C[C@@H]3C[C@H]2CN3c2cc(C(F)(F)F)ccn2)C1` [Example 66, [(2R,3aR,6aR)-2-{[(3S,4R)-3-ethyltetrahydro-2H-pyran-4-yl]amino}hexahydropentalen-3a(1H)-yl]{(1S,4S)-5-[4-(trifluoromethyl)pyridin-2-yl]-2,5-diazabicyclo[2.2.1]hept-2-yl}methanone], the Kb on rat CCR2 came to 8 nM; on human CCR2B [1], 11 nM. Moreover, the half-maximal inhibitory concentration (IC50) at human CCR2B [1] (calcium flux, human MCP-1 2 nM) is 45.8 nM. Further, affinity at human CCR2B [2] was put at a Ki of 13 nM.

As for `CO[C@@H]1COCC[C@@H]1N(C)[C@@H]1C[C@H]2CCC[C@@]2(C(=O)N2C[C@@H]3C[C@H]2CN3c2cc(C(F)(F)F)ccc2C(F)(F)F)C1` [Example 52, 1,5-anhydro-3-{[(2R,3aR,6aR)-3a-({(1S,4S)-5-[2,5-bis(trifluoromethyl)phenyl]-2,5-diazabicyclo[2.2.1]hept-2-yl}carbonyl)octahydropentalen-2-yl](methyl)amino}-2,3-dideoxy-4-O-methyl-D-erythro-pentitol], the Kb on rat CCR2 came to 38 nM. Also, at human CCR2B [1], the IC50 came to 83.9 nM and the Kb worked out at 21 nM. Besides, on human CCR2B [2], the affinity, expressed as Ki, was 49 nM.

In the case of `CO[C@@H]1COCC[C@@H]1N(C)[C@@H]1C[C@H]2CCC[C@@]2(C(=O)N2C[C@@H]3C[C@H]2CN3c2cc(C(F)(F)F)ccn2)C1` [Example 7, 1,5-anhydro-2,3-dideoxy-4-O-methyl-3-{methyl[(2R,3aR,6aR)-3a-({(1S,4S)-5-[4-(trifluoromethyl)pyridin-2-yl]-2,5-diazabicyclo[2.2.1]hept-2-yl}carbonyl)octahydropentalen-2-yl]amino}-D-erythro-pentitol], the Kb was determined as 10 nM on rat CCR2 and 16 nM on human CCR2B [1]. Moreover, the IC50 on human CCR2B [1] (calcium flux, human MCP-1 2 nM) is 65.7 nM. For the same molecule, the Ki at human CCR2B [2] was determined as 30 nM.

Turning to `N#Cc1ccc(C(F)(F)F)cc1N1C[C@@H]2C[C@H]1CN2C(=O)[C@@]12CCC[C@@H]1C[C@@H](N1CCC(c3ccccc3)CC1)C2` [Example 48, 2-[(1S,4S)-5-{[(2R,3aR,6aR)-2-(4-phenylpiperidin-1-yl)hexahydropentalen-3a(1H)-yl]carbonyl}-2,5-diazabicyclo[2.2.1]hept-2-yl]-4-(trifluoromethyl)benzonitrile], the Kb at rat CCR2 is 17 nM. Besides, at human CCR2B [1], the IC50 stood at 51.8 nM and the Kb was found to be 13 nM. This molecule registered a Ki at human CCR2B [2] of 8 nM.
